The source of these data is paper PMC8460919, “Novel Angiotensin-I Converting Enzyme Inhibitory Peptides Isolated From Rice Wine Lees: Purification, Characterization, and Structure-Activity Relationship” (Frontiers in Nutrition, 2021).

Like-named read-outs stand apart in the source and are kept apart here. Residues, ends and D or L forms follow the SMILES beside them.

The target of data set [1] is T1, Angiotensin-I converting enzyme (from rabbit lung) (Oryctolagus cuniculus, UniProt P12822).
T1 construct: Angiotensin-I converting enzyme (from rabbit lung); purchased Sigma Co., USA; host or cells: rabbit lung (tissue-derived)
T1 sequence (P12822 34-1310): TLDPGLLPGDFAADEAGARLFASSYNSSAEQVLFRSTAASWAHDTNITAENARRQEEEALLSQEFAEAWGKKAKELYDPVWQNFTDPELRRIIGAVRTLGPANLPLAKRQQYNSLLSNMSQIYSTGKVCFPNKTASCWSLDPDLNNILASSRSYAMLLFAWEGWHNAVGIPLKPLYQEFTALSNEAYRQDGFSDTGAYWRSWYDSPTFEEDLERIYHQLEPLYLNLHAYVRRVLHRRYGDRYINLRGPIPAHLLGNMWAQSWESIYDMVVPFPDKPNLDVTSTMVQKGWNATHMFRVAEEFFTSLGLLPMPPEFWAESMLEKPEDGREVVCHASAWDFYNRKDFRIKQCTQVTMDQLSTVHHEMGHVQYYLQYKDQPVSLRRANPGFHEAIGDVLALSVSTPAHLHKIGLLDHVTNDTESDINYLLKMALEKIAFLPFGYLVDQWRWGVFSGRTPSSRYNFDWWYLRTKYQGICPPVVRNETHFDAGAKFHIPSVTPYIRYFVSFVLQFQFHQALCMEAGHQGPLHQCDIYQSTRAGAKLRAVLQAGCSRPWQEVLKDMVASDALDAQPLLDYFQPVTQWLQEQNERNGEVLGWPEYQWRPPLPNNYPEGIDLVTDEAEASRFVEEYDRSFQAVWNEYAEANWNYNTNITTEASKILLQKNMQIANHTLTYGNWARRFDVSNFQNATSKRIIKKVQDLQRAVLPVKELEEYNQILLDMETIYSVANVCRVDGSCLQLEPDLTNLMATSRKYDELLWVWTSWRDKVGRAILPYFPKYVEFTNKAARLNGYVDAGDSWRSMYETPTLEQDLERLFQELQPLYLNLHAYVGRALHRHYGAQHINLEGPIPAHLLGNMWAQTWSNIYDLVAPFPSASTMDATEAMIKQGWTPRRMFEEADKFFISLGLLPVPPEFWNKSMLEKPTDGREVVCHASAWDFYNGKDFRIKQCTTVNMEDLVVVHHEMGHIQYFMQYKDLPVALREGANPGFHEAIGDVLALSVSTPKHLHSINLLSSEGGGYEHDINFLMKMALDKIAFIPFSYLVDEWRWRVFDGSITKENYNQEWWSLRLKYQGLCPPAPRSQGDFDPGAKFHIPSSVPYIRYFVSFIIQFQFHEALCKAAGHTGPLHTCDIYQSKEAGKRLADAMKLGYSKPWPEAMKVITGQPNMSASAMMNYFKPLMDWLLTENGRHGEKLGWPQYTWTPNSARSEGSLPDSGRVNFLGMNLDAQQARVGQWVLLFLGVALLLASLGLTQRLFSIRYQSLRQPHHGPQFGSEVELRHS
Briefly: ACE inhibitory activity (HHL substrate, hippuric acid by HPLC). The class given is biochemical. Particulars: for inhibition at 1000 µg/mL: concentration 1 mg/ml. As for the experimental part:
(§1) Rice wine lees was obtained from Guangdong Shunde Winery Co., Ltd., Shunde, China. Angiotensin-I converting enzyme (from rabbit lung) and N-Hippuryl-His-Leu hydrate (HHL) were purchased from Sigma Co., USA. Other chemicals and reagents were of analytical grade.
Angiotensin-I converting enzyme inhibitory activity was measured using the method described in Wu et al. ([29]) with some modifications. For each reaction, 10 μl of 0.25 U/ ml ACE solution (prepared in 0.01 M potassium phosphate buffer containing 0.5 M NaCl, pH 7.0) was mixed with 10 μl of inhibitor solution and incubated for 5 min at 37°C. Subsequently, 30 μl of HHL solution (5 mM in 0.1 M sodium borate buffer containing 0.3 M NaCl, pH 8.3) was added, followed by incubation at 37°C for 1 h. The reaction was terminated with the addition of 70 μl 1 M HCl before subsequent assays were performed. For the control group, 10 μl ACE solution and 80 μl 1 M HCl were simultaneously added to the mixture. A blank sample was prepared by replacing the inhibitor solution with 10 μl borate buffer. […] Angiotensin-I converting enzyme activity (%) was calculated according to the following equation:
ACE inhibition(%) = (A1-A2)-B/(A1-A2)×100%
Where A1, A2, and B are peak areas corresponding to Hippuric Acid in the control group, the blank and the sample, respectively.

Data set [2] deals with T2, ACE (Oryctolagus cuniculus, UniProt P12822).
T2 construct: Angiotensin-I converting enzyme (from rabbit lung); purchased Sigma Co., USA; host or cells: rabbit lung (tissue-derived)
T2 sequence (P12822 34-1310): T1 sequence (P12822 34-1310)
Briefly: Stability of peptides against ACE (pre-incubation with ACE, then ACEi assay). The class given is in vitro ADME, rabbit. The following applies: for category of ACEi peptide from ACE pre-incubation test: true inhibitor / real substrate / pro-drug type. As for the experimental part:
as §1
The stability of peptides against ACE was assayed according to the methods of Deng ([31]), with some modifications. For each reaction, 30 μl of peptides (2 mg/ml) was combined with 30 μl 0.25 U/ml ACE solution and incubated at 37°C for 30 min. Angiotensin-I converting enzyme was then inactivated by boiling the solution for 10 min. As described in section Measurement of ACEi Activity, 20 μl of each peptide sample was used for the detection of ACEi activity.

For the next data set, the system named is pepsin, chymotrypsin. Briefly: Stability of peptides during in vitro digestion by gastrointestinal enzymes (ACEi activity after digestion). The format is in vitro ADME. Particulars: in vitro digestion by pepsin and chymotrypsin. As for the experimental part:
Peptide stability was measured according to the methods described in Chen et al. ([30]) with some modifications. For this assay, 2% (w/w) pepsin was dissolved in a KCl–HCl buffer (0.1 mM) adjusted to pH 2.0, and 2% (w/w) chymotrypsin was dissolved in a KCl–NaOH (0.1 mM) buffer adjusted to pH 7.0. Peptides were dissolved at 1 mg/ml in pepsin or chymotrypsin solutions and incubated at 37°C for 4 h. Reactions were terminated by boiling for 15 min. After centrifugation at 4,000 rpm for 15 min, the supernatant was collected, pH was adjusted to 8.0, and samples were assayed for ACEi activity. The supernatant was also analyzed using the previously described RP-HPLC conditions to evaluate changes to the peptides after in vitro digestion.
Control groups were prepared by incubating inactivated pepsin and/or chymotrypsin (boiled for 15 min) with the sample peptides. After incubation, the mixture was processed and analyzed as described.

For data set [3], the target named is T2, ACE. Briefly: Kinetic parameters of ACE inhibition (Lineweaver-Burk plots). Particulars: for type of ACE inhibition: Lineweaver-Burk plots, peptides at 0.05 or 0.1 mg/ml. The class given is biochemical, rabbit. As for the experimental part: Angiotensin-I converting enzyme inhibition of purified peptides was determined using Lineweaver–Burk plots according to reported methods ([32]). Samples were added at two fixed concentrations to each reaction mixture, and enzyme activity was measured for different concentrations of the substrate HHL according to the ACE inhibition assay. The curves were described by 1/area and 1/[S], and the kinetics of ACE inhibitors were estimated by comparing the resulting curves.
To clarify the kinetics of inhibition, Lineweaver–Burk plots were generated. Various concentrations of substrate were incubated with ACE solution in the absence or presence of RWLE peptides at 0.05 or 0.1 mg/ml.

Where [4] appears, read: peptide concentration 0.05 mg/ml.
The mark [5] stands for this setting: peptide concentration 0.1 mg/ml.

By inhibition is commonly meant the share of the control response that was lost under treatment. As to `CC[C@H](C)[C@H](NC(=O)[C@@H](N)CC(C)C)C(=O)N[C@H](C(=O)N1CCC[C@H]1C(=O)N[C@@H](CCC(N)=O)C(=O)N[C@@H](Cc1c[nH]cn1)C(=O)O)[C@@H](C)CC` [H5, LIIPQH] (H-LIIPQH-OH; N-terminus and C-terminus assumed), in data set [1], the inhibition at 1000 µg/mL came out at 89.3%. Further, the “stability against ACE” value at ACE [2] is reported as “stable”. Further, the “category of ACEi peptide from ACE pre-incubation test” value at ACE [2] is “pro-drug ACE-inhibitors”. In addition, the “stability against gastrointestinal enzymes” value is reported as “stable within the gastrointestinal environment” with pepsin, chymotrypsin and “stable” in the data set with pepsin, chymotrypsin (listed as LIIPQH). In addition, the “type of ACE inhibition” value on ACE [3] was “non-competitive inhibitors (mostly mixed-type)”; at ACE [3] (listed as LIIPQH) it was “mixed-type ACE inhibitors”. Moreover, the Vm is given as 0.120 ΔA/min on ACE [3] (setting [4]) and 0.070 ΔA/min at ACE [3] (setting [5]).

As a reminder, the IC50 is the concentration that gives 50% inhibition. In the case of `CC[C@H](C)[C@H](NC(=O)[C@@H](N)CC(C)C)C(=O)N[C@H](C(=O)N1CCC[C@H]1C(=O)N[C@@H](CCC(=O)O)C(=O)N[C@@H](Cc1c[nH]cn1)C(=O)O)[C@@H](C)CC` [H6, LIIPEH] (H-LIIPEH-OH; N-terminus and C-terminus assumed), the inhibition at 1000 µg/mL in data set [1] was found to be 91.7%. Besides, the IC50 in data set [1] (products of each purification step (natural, from RWLE)) is 83.9 µM; in data set [1] (synthetic peptides) it was 78.6 µM; on ACE [2] (control (co-incubation with inactive ACE), read-out: IC50 without pre-incubation (converted)), 51.3 µM; on ACE [2] (pre-incubation with ACE, 37°C 30 min, read-out: IC50 with pre-incubation (converted)), 70.7 µM. Also, the “stability against ACE” value on ACE [2] is listed as “stable”. The “category of ACEi peptide from ACE pre-incubation test” value at ACE [2] is on record as “pro-drug ACE-inhibitors”. Further, the “stability against gastrointestinal enzymes” value in the data set with pepsin, chymotrypsin was “stable within the gastrointestinal environment”; in the data set on pepsin, chymotrypsin (listed as LIIPEH), “stable”. Also, the “type of ACE inhibition” value was “non-competitive inhibitors (mostly mixed-type)” on ACE [3] and “mixed-type ACE inhibitors” on ACE [3] (listed as LIIPEH). For the same compound, the Vm on ACE [3] (setting [4]) is recorded as 0.099 ΔA/min; at ACE [3] (setting [5]), 0.049 ΔA/min.

Take `CC[C@H](C)[C@H](N)C(=O)N[C@H](C(=O)N1CCC[C@H]1C(=O)N[C@@H](CCC(N)=O)C(=O)N[C@@H](Cc1c[nH]cn1)C(=O)O)[C@@H](C)CC` [IIPQH] (H-IIPQH-OH; N-terminus and C-terminus assumed): the IC50 in data set [1] (synthetic peptides) is 1780 µM.

`CC[C@H](C)[C@H](NC(=O)[C@@H](N)CC(C)C)C(=O)N[C@H](C(=O)N1CCC[C@H]1C(=O)N[C@@H](CCC(N)=O)C(=O)N[C@@H](Cc1c[nH]cn1)C(=O)N[C@@H](Cc1c[nH]cn1)C(=O)O)[C@@H](C)CC` [LIIPQHH] (H-LIIPQHH-OH; N-terminus and C-terminus assumed) had an IC50 in data set [1] (synthetic peptides) of 1410 µM.

With `CC[C@H](C)[C@H](NC(=O)[C@@H](N)CC(C)C)C(=O)N[C@H](C(=O)N1CCC[C@H]1C(=O)N[C@@H](CCC(N)=O)C(=O)N[C@@H](Cc1c[nH]cn1)C(=O)N[C@@H](Cc1ccc(O)cc1)C(=O)O)[C@@H](C)CC` [LIIPQHY] (H-LIIPQHY-OH; N-terminus and C-terminus assumed), in data set [1] (synthetic peptides), half-maximal inhibition (IC50) required 1230 µM.

On to `CC[C@H](C)[C@H](NC(=O)[C@@H](N)CC(C)C)C(=O)N[C@H](C(=O)N1CCC[C@H]1C(=O)N[C@@H](CCC(N)=O)C(=O)O)[C@@H](C)CC` [LIIPQ] (H-LIIPQ-OH; N-terminus and C-terminus assumed), for which, in data set [1] (synthetic peptides), the midpoint of inhibition, the IC50, lay at 2390 µM.

On to `CC[C@H](C)[C@H](NC(=O)[C@@H](N)CC(C)C)C(=O)N[C@H](C(=O)N1CCC[C@H]1C(=O)O)[C@@H](C)CC` [LIIP] (H-LIIP-OH; N-terminus and C-terminus assumed), for which the IC50 in data set [1] (synthetic peptides) is 2040 µM.

The compound `CC[C@H](C)[C@H](NC(=O)[C@H](CC(C)C)NC(=O)[C@@H](N)CC(C)C)C(=O)N[C@H](C(=O)N1CCC[C@H]1C(=O)N[C@@H](CCC(N)=O)C(=O)N[C@@H](Cc1c[nH]cn1)C(=O)O)[C@@H](C)CC` [LLIIPQH] (H-LLIIPQH-OH; N-terminus and C-terminus assumed) gave an IC50 in data set [1] (synthetic peptides) of 995 µM.
